Columns and labels:
[1] = target: T1, angiotensin-I-converting enzyme (ACE) (Oryctolagus cuniculus, UniProt P12822); experiment: ACE (Angiotensin I-Converting Enzyme) inhibition activity, Hip-His-Leu substrate, absorbance at 228 nm; assay type: biochemical, rabbit
T1 construct: tissue Sigma; host or cells: rabbit lung (acetone powder, borate buffer extract supernatant)
T1 sequence (P12822 34-1310): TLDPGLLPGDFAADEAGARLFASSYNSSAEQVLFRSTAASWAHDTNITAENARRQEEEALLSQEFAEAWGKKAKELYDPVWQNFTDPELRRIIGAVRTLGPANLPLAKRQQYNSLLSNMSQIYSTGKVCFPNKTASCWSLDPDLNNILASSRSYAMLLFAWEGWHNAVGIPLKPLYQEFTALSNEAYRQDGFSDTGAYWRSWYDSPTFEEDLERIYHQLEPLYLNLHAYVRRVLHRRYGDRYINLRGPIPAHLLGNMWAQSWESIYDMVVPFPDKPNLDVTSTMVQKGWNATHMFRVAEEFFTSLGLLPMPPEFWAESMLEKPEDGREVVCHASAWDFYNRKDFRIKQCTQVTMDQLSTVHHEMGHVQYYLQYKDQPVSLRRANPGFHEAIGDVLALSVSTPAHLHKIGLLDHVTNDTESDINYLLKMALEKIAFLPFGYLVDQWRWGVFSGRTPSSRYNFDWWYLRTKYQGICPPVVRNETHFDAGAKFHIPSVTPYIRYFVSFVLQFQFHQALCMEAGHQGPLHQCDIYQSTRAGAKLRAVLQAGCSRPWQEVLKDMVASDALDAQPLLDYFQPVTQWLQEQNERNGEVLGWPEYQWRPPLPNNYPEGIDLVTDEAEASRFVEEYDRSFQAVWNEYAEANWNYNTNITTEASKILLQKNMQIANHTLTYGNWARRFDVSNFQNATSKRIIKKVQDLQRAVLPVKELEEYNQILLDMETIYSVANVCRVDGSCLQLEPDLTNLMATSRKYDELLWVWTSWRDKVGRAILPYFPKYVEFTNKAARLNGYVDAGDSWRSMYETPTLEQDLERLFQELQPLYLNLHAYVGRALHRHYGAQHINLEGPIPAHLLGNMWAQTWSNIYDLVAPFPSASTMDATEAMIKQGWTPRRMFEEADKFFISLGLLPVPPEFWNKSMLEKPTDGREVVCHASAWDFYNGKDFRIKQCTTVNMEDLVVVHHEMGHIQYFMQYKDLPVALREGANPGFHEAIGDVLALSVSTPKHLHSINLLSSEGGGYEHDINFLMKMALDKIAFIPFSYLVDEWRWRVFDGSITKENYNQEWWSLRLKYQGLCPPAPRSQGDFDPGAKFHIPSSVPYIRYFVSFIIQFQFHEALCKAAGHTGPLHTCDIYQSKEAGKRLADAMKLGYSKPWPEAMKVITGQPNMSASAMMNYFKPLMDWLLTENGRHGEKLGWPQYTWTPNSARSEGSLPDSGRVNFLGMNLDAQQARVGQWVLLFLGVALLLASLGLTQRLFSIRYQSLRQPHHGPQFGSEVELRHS
Description: As shown in the results of Table 8, the hydrolyzed Salicornia salty sauces had very high functional polyphenol and flavonoid contents compared to the non-hydrolyzed salty sauce. Thus, as an indicator for antihypertensive activity, angiotensin-I-converting enzyme (ACE) inhibition activity was evaluated. As the test sample, each salty sauce, adjusted to a salt content of 14%, was added at a concentration of 1 to 5 μL/mL to the reaction solution, and then measured.
Angiotensin-II, produced by ACE, promotes an increase in blood pressure and secretion of antidiuretic hormone aldosterone, and suppresses the emission of water and sodium to thus increase blood circulation, thus causing hypertension. […] Specifically, 1 g of a rabbit lung acetone powder (Sigma Col) in 50 μL of the sample was mixed with 25 μL (2.5 unit) of an ACE supernatant dissolved in a 0.1 M sodium borate buffer containing 10 mL of 0.3 M NaCl, 50 μL of a 0.1 M sodium borate buffer (pH 8.3) containing 0.3 M NaCl, and 25 μL of a sample solution at various concentrations (0.25, 0.5 and 1.0 mg/mL), and then preincubated at 37° C. for 10 min. Further, 50 μL of a Hip-His-Leu substrate solution was added, and the resulting mixture was allowed to react at 37° C. for 30 min, after which the reaction was stopped by the addition of 100 μL of 1 N HCl. 1 mL of ethyl acetate was added, and the resulting reaction mixture was agitated in a vortex for 1 min and centrifuged at 3,000 g for 15 min, after which 0.8 mL of the separated ethyl acetate supernatant (extract) was recovered. The supernatant was warmed in a hood and thus completely volatilized, and was then dissolved in 1 mL of a sodium borate buffer under the same conditions, after which absorbance at 228 nm was measured and ACE inhibition activity was calculated.
During purification, the organic solvent fractions (at concentrations of 10, 25, 50 μg/mL) were measured for ACE inhibition activity in the same manner as in Example 3-2.

[2] = Solubility (physical and chemical properties of Compound A); assay type: physicochemical

Row | Structure (SMILES) | IC50 [1] | inhibition at 10 µg/mL ([1]; at a concentration of 10 μg/mL) | ACE inhibition activity, rank among compared samples/fractions ([1]; compared with the other sauces or with the other fractions of the same purification step) | Solubility ([2]; in methanol, ethanol, ethyl acetate, and chloroform) | Solubility ([2]; in water)
1 | COc1cc2c(=O)c(-c3ccccc3O)coc2cc1O [EDS-LH-7b, 7-hydroxy-3-(2′-hydroxyphenyl)-6-methoxy-4H-1-benzopyran-4-one] | 15.8 µM | ≥ 95% | the greatest | Soluble | insoluble
2 | O=c1cc(-c2ccc(O)c(O)c2)oc2cc(O)cc(O)c12 [Luteolin, reference compound] | 93.3 µM | – | – | – | –
